ChEMBL document CHEMBL1201862, “PubChem BioAssay data set” (2004)
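Step 1: Grow cells in 96-well plates. Step 2: Expose to compound for 48 hours at 5 concentrations. Step 3: Interpolate endpoints linearly; if unreached, use highest concentration. The concentration for 50% growth inhibition is given as GI50.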 The source made the active and inactive calls. No stated cut-off is given here; in the data, active = GI50 up to about 1.1 µM and inactive = higher.

What was measured:
Experiment in all cases: NCI tumour cell line growth inhibition, 48 h
CCRF-CEM = tested on: CCRF-CEM
MOLT-4 = tested on: MOLT-4
DLD-1 = tested on: DLD-1
SN12C = tested on: SN12C
SR = tested on: SR
U-251 = tested on: U-251
CAKI-1 = tested on: CAKI-1
SF-539 = tested on: SF-539
ACHN = tested on: ACHN
RXF 393 = tested on: RXF 393
HOP-92 = tested on: HOP-92
COLO 205 = tested on: COLO 205
HCT-15 = tested on: HCT-15
A498 = tested on: A498
SK-MEL-2 = tested on: SK-MEL-2
M19-MEL = tested on: M19-MEL
SNB-19 = tested on: SNB-19
SK-MEL-28 = tested on: SK-MEL-28
SK-OV-3 = tested on: SK-OV-3
NCI-H522 = tested on: NCI-H522
OVCAR-4 = tested on: OVCAR-4
SW-620 = tested on: SW-620
KM-20L2 = tested on: KM-20L2
NCI-H460 = tested on: NCI-H460
NCI-H23 = tested on: NCI-H23
NCI-H226 = tested on: NCI-H226
SF-268 = tested on: SF-268
M14 = tested on: M14
LOX IMVI = tested on: LOX IMVI
HCC 2998 = tested on: HCC 2998
RPMI-8226 = tested on: RPMI-8226
SK-MEL-5 = tested on: SK-MEL-5
SNB-78 = tested on: SNB-78
SF-295 = tested on: SF-295
UACC-62 = tested on: UACC-62
786-0 = tested on: 786-0
HOP-62 = tested on: HOP-62
KM12 = tested on: KM12
OVCAR-8 = tested on: OVCAR-8
XF498 = tested on: XF498
K562 = tested on: K562
OVCAR-3 = tested on: OVCAR-3
HCT-116 = tested on: HCT-116
SNB-75 = tested on: SNB-75
DMS-273 = tested on: DMS-273
HL-60 = tested on: HL-60
DMS-114 = tested on: DMS-114
EKVX = tested on: EKVX
OVCAR-5 = tested on: OVCAR-5
A549 = tested on: A549
HT-29 = tested on: HT-29
LXFL 529 = tested on: LXFL 529
UO-31 = tested on: UO-31
IGROV-1 = tested on: IGROV-1
Malme-3M = tested on: Malme-3M
TK-10 = tested on: TK-10

Measured: GI50

CC1C=CC(C(N)C(=O)O)O1 (stereo not given)
inactive: CCRF-CEM > 100 µM | MOLT-4 > 100 µM | DLD-1 > 100 µM | SN12C > 100 µM | SR > 100 µM | U-251 > 100 µM | CAKI-1 > 100 µM | SF-539 > 100 µM | ACHN > 100 µM | RXF 393 > 100 µM | HOP-92 > 100 µM | COLO 205 > 100 µM | A498 > 100 µM | SK-MEL-2 > 100 µM | M19-MEL > 100 µM | SNB-19 > 100 µM | SK-MEL-28 > 100 µM | SK-OV-3 > 100 µM | NCI-H522 > 100 µM | OVCAR-4 > 100 µM | SW-620 > 100 µM | KM-20L2 > 100 µM | NCI-H460 > 100 µM | NCI-H23 > 100 µM | NCI-H226 > 100 µM | SF-268 > 100 µM | M14 > 100 µM | LOX IMVI > 100 µM | HCC 2998 > 100 µM | RPMI-8226 > 100 µM | SK-MEL-5 > 100 µM | SNB-78 > 100 µM | SF-295 > 100 µM | UACC-62 > 100 µM | 786-0 > 100 µM | HOP-62 > 100 µM | KM12 > 100 µM | OVCAR-8 > 100 µM | XF498 > 100 µM | K562 51.3 µM | OVCAR-3 > 100 µM | HCT-116 > 100 µM | SNB-75 > 100 µM | DMS-273 > 100 µM | HL-60 > 100 µM | DMS-114 > 100 µM | EKVX > 100 µM | OVCAR-5 > 100 µM | A549 > 100 µM | HT-29 > 100 µM | LXFL 529 > 100 µM | UO-31 > 100 µM | IGROV-1 > 100 µM | Malme-3M > 100 µM
> 100 µM: HCT-15

COc1ccc2c([nH]c3cc(O)c(C)cc32)c1C=O
14.8 µM: HCT-15
inactive: CCRF-CEM 23.6 µM | MOLT-4 11.2 µM | DLD-1 > 25 µM | SN12C > 25 µM | SR 18.9 µM | U-251 > 25 µM | SF-539 > 25 µM | ACHN > 25 µM | RXF 393 > 25 µM | HOP-92 > 25 µM | COLO 205 > 25 µM | SK-MEL-2 > 25 µM | M19-MEL > 25 µM | SNB-19 > 25 µM | SK-MEL-28 > 25 µM | SK-OV-3 > 25 µM | NCI-H522 20 µM | OVCAR-4 > 25 µM | SW-620 > 25 µM | KM-20L2 > 25 µM | NCI-H460 11.2 µM | NCI-H226 > 25 µM | SF-268 > 25 µM | TK-10 > 25 µM | M14 > 25 µM | LOX IMVI > 25 µM | HCC 2998 > 25 µM | RPMI-8226 > 25 µM | SK-MEL-5 > 25 µM | SNB-78 > 25 µM | UACC-62 > 25 µM | 786-0 > 25 µM | HOP-62 > 25 µM | KM12 > 25 µM | OVCAR-8 > 25 µM | XF498 > 25 µM | K562 14.6 µM | OVCAR-3 > 25 µM | HCT-116 > 25 µM | DMS-273 > 25 µM | HL-60 15.9 µM | DMS-114 > 25 µM | OVCAR-5 > 25 µM | A549 18.5 µM | HT-29 > 25 µM | LXFL 529 > 25 µM | UO-31 > 25 µM | IGROV-1 > 25 µM | Malme-3M > 25 µM
